Results: ChEMBL document CHEMBL4316654, “Prenylated Acylphloroglucinols from Hypericum faberi” (J Nat Prod, 2019)

What was measured:
Format in all cases: functional, cell-based
PANC-1 = test: Cytotoxicity against human PANC1 cells incubated for 48 hrs by MTT assay; conditions: PANC-1, 48 h
[1] = Cytotoxicity against human BIU87 cells incubated for 48 hrs by MTT assay; conditions: BIU87, 48 h
ECa-109 cell line = test: Cytotoxicity against human ECA109 cells incubated for 48 hrs by MTT assay; conditions: ECa-109, 48 h

Compound	IC50 (PANC-1) [µM]	IC50 [1] [µM]	IC50 (ECa-109 cell line) [µM]
CC(C)=CCC/C(C)=C/Cc1c(O)c(C(=O)C(C)C)c2oc(-c3ccc(O)cc3)cc2c1O	9		
CC(=O)O[C@H]1C(=O)[C@@]2(C)[C@H]([C@H](OC(=O)c3ccccc3)[C@]3(O)C[C@H](OC(=O)[C@H](O)[C@@H](NC(=O)c4ccccc4)c4ccccc4)C(C)=C1C3(C)C)[C@]1(OC(C)=O)CO[C@@H]1C[C@@H]2O [PACLITAXEL]	3.5	2.1	1.2
CCC(C)C(=O)c1c(O)c(C/C=C(\C)CCC=C(C)C)c(O)c2cc(-c3ccccc3)oc12 (stereo not given)	6.2		
